According to PubChem BioAssay (NCI):
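48-hour exposure; five concentrations; linearly interpolated endpoints. TGI denotes the concentration required for complete inhibition of growth.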

What was measured:
Assay in all cases: DTP human tumour cell line panel, 48 h
LXFL 529 NSCLC = system: LXFL 529 NSCLC
A549 NSCLC = system: A549 NSCLC
OVCAR-3 ovarian = system: OVCAR-3 ovarian
NCI-H23 lung = system: NCI-H23 lung
IGROV1 ovarian = system: IGROV1 ovarian
SK-MEL-2 melanoma = system: SK-MEL-2 melanoma
KM12 colon = system: KM12 colon
U251 CNS = system: U251 CNS
SK-MEL-5 melanoma = system: SK-MEL-5 melanoma
OVCAR-8 ovarian = system: OVCAR-8 ovarian
HT29 colon = system: HT29 colon
OVCAR-5 ovarian = system: OVCAR-5 ovarian
SN12C renal = system: SN12C renal
M14 melanoma = system: M14 melanoma
HCT-15 colon = system: HCT-15 colon
HCC-2998 colon = system: HCC-2998 colon
A498 renal = system: A498 renal
KM20L2 colon = system: KM20L2 colon
HOP-62 NSCLC = system: HOP-62 NSCLC
786-0 renal = system: 786-0 renal
EKVX NSCLC = system: EKVX NSCLC
SNB-19 CNS = system: SNB-19 CNS
OVCAR-4 ovarian = system: OVCAR-4 ovarian
DMS 114 small cell lung = system: DMS 114 small cell lung
HCT-116 colon = system: HCT-116 colon
RPMI-8226 leukemia = system: RPMI-8226 leukemia
SR leukemia = system: SR leukemia
MOLT-4 leukemia = system: MOLT-4 leukemia
UACC-62 melanoma = system: UACC-62 melanoma
TK-10 renal = system: TK-10 renal
NCI-H522 lung = system: NCI-H522 lung
SF-539 CNS = system: SF-539 CNS
HL-60(TB) leukemia = system: HL-60(TB) leukemia
MALME-3M melanoma = system: MALME-3M melanoma
HOP-92 NSCLC = system: HOP-92 NSCLC
UO-31 renal = system: UO-31 renal
SK-OV-3 ovarian = system: SK-OV-3 ovarian
SK-MEL-28 melanoma = system: SK-MEL-28 melanoma
COLO 205 colon = system: COLO 205 colon
K-562 leukemia = system: K-562 leukemia
RXF 393 renal = system: RXF 393 renal
M19-MEL melanoma = system: M19-MEL melanoma
DLD-1 colon = system: DLD-1 colon
HOP-18 NSCLC = system: HOP-18 NSCLC
SW-620 colon = system: SW-620 colon
SF-268 CNS = system: SF-268 CNS
CAKI-1 renal = system: CAKI-1 renal

Measured: TGI

Cc1no[n+]([O-])c1/C=N/NS(=O)(=O)c1ccccc1
> 100 µM: all assays above
